Reference: US7993660B2, “Method of increasing immunological effect” (IRx Therapeutics, Inc., priority 2007, dated 2011)
Where a SMILES comes first, the peptide text is derived from it. The star is where a group is joined. Cbz = O=C(OCc1ccccc1)*; CH2F = FC*

Experiments:
[1] = system: caspase-3 and caspase-7; assay: Caspase-3/-7 activation (caspase 3/7-FAM flow cytometry, Western immunoblot) in CD8+ Jurkat cells; format: cell-based, human; settings: IRX-2 1:3 24 hours pre-treatment; zVAD 20 μM; ZB4 10 μg/mL; MV 10 μg 3 hours
Description: To determine total or phosphorylated forms of Akt, Bcl-2, CD3ζ, caspase-3, JAK3, STAT5, FLIP, and Mcl-1, Jurkat CD8+ cells or purified activated CD8+ or CD4+ T-cells were co-incubated with MV at the indicated concentration and/or with IRX-2 (1:3 final dilution) for the indicated period of time at 37° C. The cells were then washed, centrifuged at 4° C. and lysed in equal volumes of ice-cold lysis-buffer (50 mM Tris-HCL pH 7.5, 150 mM NaCl, 0.5% Nonidet P-40) and protease inhibitor cocktail (Pierce Chemical Co., Rockford, Ill.). After lysis, the homogenates were clarified by centrifugation. The supernatants were isolated, and boiled for 5 minutes in 5× Laemmli sample buffer. […]
Total cellular Caspase activity was tested by intracellular staining of activated caspases using a pan caspase inhibitor, CASPACE FITC-VAD-FMK In Situ Marker (Promega, Madison, Wis.). […] Then cells were stained for cell surface receptors, fixed with 1% paraformaldehyde and analyzed by flow cytometry. The specific activation of caspase-3 and caspase-7 was measured using the VYBRANT FAM caspase-3 and -7 Assay Kit from Invitrogen (Carlsbad, Calif.) according to the manufacturers' instructions. […] The cells were analyzed by flow cytometry with the fluorescein measured on the FL1 channel. […]

[2] = system: CD8+ Jurkat cells; assay: Loss of mitochondrial membrane potential (JC-1) in CD8+ Jurkat cells; format: cell-based, human; settings: IRX-2 1:3 24 hours pre-treatment, MV 10 μg 24 hours
Description: The loss of mitochondrial membrane potential (MMP) as a hallmark of apoptosis was measured using the MITOPROBE JC-1 Assay Kit from Invitrogen (Carlsbad, Calif.). The cationic dye JC-1 (5,5′, 6,6′-tetrachloro-1,1′, 3,3′-tetraethylbenzimidazolylcarbocyanine iodide) exists in healthy cells as a green monomer in the cytosol and also accumulates as red aggregates in the mitochondria. In apoptotic and necrotic cells, JC-1 remains only in the cytoplasm due to mitochondrial depolarization, which can be detected by flow cytometry as a decrease in the red/green fluorescence intensity ratio. CD8+ Jurkat cells or activated T lymphocytes were incubated in PBS containing 2 μM of JC-1 for 30 minutes at 37° C., 5% CO2. […] The cells were analyzed using a flow cytometer immediately after staining.
CD8+ Jurkat cells were analyzed by flow cytometry for a decrease in red fluorescence of the cationic dye JC-1, indicating a loss of MMP. Percentage of JC-1 red-negative cells were determined in cultures of CD8+ Jurkat cells after no treatment, 24 hours treatment with MV (10 μg) alone (no IRX) or pre-treated for 24 hours with IRX-2 (1:3 dilution) or MV in combination with the apoptosis-inhibitor Z-VAD-FMK (pan-caspase inhibitor; conc) or ZB4 (anti-Fas neutralizing mAb, conc/dose). […]

[3] = system: activated peripheral blood CD4+ T-lymphocytes; assay: Caspase activation (FITC-VAD-FMK staining, flow cytometry) in activated primary CD4+ T cells; format: cell-based, human; settings: for inhibition of PCI-13/FasL-MV-induced apoptosis (caspase-VAD-FITC binding): CD4+, IRX-2 1:3 or IL-7, IL-15 100 ng/mL 24 hours, MV 15 μg 24 hours; for mean % of FITC-VAD-FMK+ cells ± SD: CD4+ cells, 24 hours pre-incubation (IRX-2 1:3, IL-2 100 IU/mL, IL-7/IL-15 10 ng/mL)
Source text: (§1) The head and neck squamous cell carcinoma (H&NSCC) cell line […] was established in Applicants' laboratory and maintained as previously described. It was retrovirally transfected with the human FasL gene obtained from Dr. S. Nagata (Osaka Biosciences Institute, Osaka, Japan) as previously reported. Supernatants of transfected PCI-13-cells (PCI-13-FasL), which contained both sFasL and the 42 kDa membranous form of FasL, were used as a source of tumor-derived microvesicles (MV). Jurkat cells were obtained from American Tissue Culture Collection (ATCC, Manassas, Va.) and were transfected with CD8. The CD8+ Jurkat cells were cultured in RPMI 1640 medium supplemented with 10% (v/v) fetal bovine serum (FBS), L-glutamine and antibiotics. Human T lymphocytes were isolated from peripheral blood mononuclear cells (PBMC) obtained from consented normal donors. PBMC were isolated by Ficoll-Hypaque density gradient centrifugation (GE Healthcare Bio-Sciences Corp., Piscataway, N.J.), washed and plated for 1 hour at 37° C. in culture flasks (T162) in an atmosphere of 5% CO2 to remove CD14+ monocytes. The non-adherent T-lymphocyte fraction was collected and immediately used for experiments or cryopreserved. CD8+ T cells or CD4+ T cells were purified by positive selection using CD8 MicroBeads or CD4 MicroBeads, respectively (Miltenyi Biotec, Auburn, Calif.) using the AutoMACS system according to the manufacturer's instructions. Purified CD8+ or CD4+ T cells were then cultured for 2-3 days in AIM V medium supplemented with 10% FBS in the presence of beads coated with anti-CD3 and anti-CD28 antibodies (T Cell Activation/Expansion Kit, Miltenyi Biotec). All cells used for the above described experiments were in the log phase of growth.
(§2) CD8+ Jurkat cells or activated normal T lymphocytes were plated at 0.3×10^6 cells per well in a 96-well plate and pre-treated or not with IRX-2 or with recombinant human cytokines at a final concentration of 10 ng/mL or 100 IU/mL for 24 hours (unless otherwise noted). MV (10 μg protein per 0.3×10^6 cells) were then added for 3-24 hours. In some experiments, cells were first co-incubated with MV for 3-24 hours, then washed and treated further with IRX-2 or cytokines or treated for the indicated time period with MV and IRX-2 added simultaneously. In selected blocking experiments, anti-Fas neutralizing monoclonal antibody, ZB-4, the pan-caspase inhibitor, Z-VAD-FMK, or the specific Akt-inhibitor or specific inhibitors for caspase-3, caspase-8 and caspase-9 were added at the indicated concentrations prior to MV co-incubation.
(§3) Four color flow cytometry was performed using a […] (Beckman Coulter) equipped with Expo32 software (Beckman Coulter). Lymphocytes were gated based on morphology, and debris, MV as well as monocytes and granulocytes were excluded, collecting data on at least 10^5 cells. For the analysis of activated primary T lymphocytes, gates were restricted to the CD3^+CD8^+ or CD3^+CD4^+ T-cell subsets. Data was analyzed using Coulter EXPO 32vl.2 analysis software.
(§4) Total cellular Caspase activity was tested by intracellular staining of activated caspases using a pan caspase inhibitor, CASPACE FITC-VAD-FMK In Situ Marker (Promega, Madison, Wis.). Cells were resuspended in PBS and FITC-VAD-FMK was added at a final concentration of 5 μM. The cells were incubated for 20 minutes at 37° C., 5% CO2 and washed with PBS. Then cells were stained for cell surface receptors, fixed with 1% paraformaldehyde and analyzed by flow cytometry. The specific activation of caspase-3 and caspase-7 was measured using the VYBRANT FAM caspase-3 and -7 Assay Kit from Invitrogen (Carlsbad, Calif.) according to the manufacturers' instructions. Briefly, cells were resuspended in PBS and stained with a 150× dilution of the carboxyfluorescein (FAM)-labeled FMK-caspase inhibitor for 60 minutes at 37° C., 5% CO2. Then the cells were washed in wash buffer and fixed with 1% paraformaldehyde.

[4] = system: CD8+ Jurkat cells; format: cell-based; settings: 24 hours pre-treatment (IRX-2 1:3; IL-7, IL-15 10 ng/mL), PCI-13/FasL-MV 15 μg 3 hours; no IRX-2 lane 50%
Description: as §2
Total cellular Caspase activity was tested by intracellular staining of activated caspases using a pan caspase inhibitor, CASPACE FITC-VAD-FMK In Situ Marker (Promega, Madison, Wis.). […] Then cells were stained for cell surface receptors, fixed with 1% paraformaldehyde and analyzed by flow cytometry. The specific activation of caspase-3 and caspase-7 was measured using the VYBRANT FAM caspase-3 and -7 Assay Kit from Invitrogen (Carlsbad, Calif.) according to the manufacturers' instructions. […]

[5] = system: activated peripheral blood CD8+ T-lymphocytes; assay: Caspase activation (FITC-VAD-FMK staining, flow cytometry) in activated primary CD8+ T cells; format: cell-based, human; settings: for inhibition of PCI-13/FasL-MV-induced apoptosis (caspase-VAD-FITC binding): CD8+, IRX-2 1:3 or IL-7, IL-15 100 ng/mL 24 hours, MV 15 μg 24 hours; for mean % of FITC-VAD-FMK+ cells ± SD: CD8+ cells, 24 hours pre-incubation (IRX-2 1:3, IL-2 100 IU/mL, IL-7/IL-15 10 ng/mL)
Source text: as §1, §2, §3, §4

[6] = Table 2A MV-induced apoptosis, then 10 μg MV 24 hours
[7] = Table 2B CH-11 Ab-induced apoptosis, then 400 ng/mL CH-11 Ab 24 hours

Row | Compound | MV-induced induction of caspase-3 and -7 activity (caspase-3/-7-FAM MFI) [1] | MV-induced loss of mitochondrial membrane potential (JC-1 red-negative cells) [2] | inhibition of PCI-13/FasL-MV-induced apoptosis (caspase-VAD-FITC binding) [3] | mean % of FITC-VAD-FMK+ cells ± SD [3, 6] | mean % of FITC-VAD-FMK+ cells ± SD [3, 7] | apoptotic cells (activated caspase-VAD-FITC binding CD8+ Jurkat cells) [4] | inhibition of PCI-13/FasL-MV-induced apoptosis (caspase-VAD-FITC binding) [5] | mean % of FITC-VAD-FMK+ cells ± SD [5, 6] | mean % of FITC-VAD-FMK+ cells ± SD [5, 7]
1 | COC(=O)C[C@H](NC(=O)[C@H](C)NC(=O)[C@@H](NC(=O)OCc1ccccc1)C(C)C)C(=O)CF [zVAD] (Cbz-Val-Ala-Asp(OMe)-CH2F) | completely prevented | block was comparable to that provided by the two inhibitors | – | – | – | – | – | – | –
2 | IL-7: human recombinant survival cytokine, purchased from Peprotech | – | – | similarly effective compared to IRX-2 | 34.5 ± 1.9% | 31.8 ± 10.6% | neither IL-7 nor IL-15 alone was able to reduce the level of apoptosis below the control MV-induced level | similarly effective compared to IRX-2 | 49.5 ± 3.5% | 37.7 ± 1.4%
3 | IL-15: human recombinant survival cytokine, purchased from Peprotech | – | – | similarly effective compared to IRX-2 | 16.7 ± 2.1% | 21.1 ± 5.3% | neither IL-7 nor IL-15 alone was able to reduce the level of apoptosis below the control MV-induced level | similarly effective compared to IRX-2 | 16.8 ± 6.2% | 28.8 ± 3.1%
